Reference: PMC9694334, “Synthesis and Biological Evaluation of a Fused Structure of Indolizine and Pyrrolo[1,2-c]pyrimidine: Identification of Its Potent Anticancer Activity against Liver Cancer Cells” (Pharmaceuticals, 2022)

What was measured:
cleaved PARP = test: Western blot analysis of cleaved PARP in HepG2 cells; assay type: cell-based; conditions: 24 h, Figure 4E,G
Protocol: For Western blot analysis, HepG2 and Huh7 cells were lysed with RIPA buffer (50 mM Tris-HCl, PH 7.4, 1% Nonidet P-40, 0.25% sodium deoxycholate, 150 mM NaCl, 1 mM EDTA, 1 mM Na3VO4, and protease inhibitor). Lysed samples were centrifuged at 13,000 RPM for 20 min at 4 °C to remove the cell debris, and equal amounts (60 μg protein/lane) of supernatant protein were divided by 4–12% Tris Glycine Precast Gel (KOMA BIOTECH, Seoul, Korea). Then, PVDF membranes (Millipore, Billerica, MA, USA) were used to transfer the separated proteins. Membrane blocking was performed by Tris-buffered saline with 0.1% Tween 20 (TBST) containing 5% bovine serum albumin (BSA) at room temperature for 50 min. The membranes were incubated with primary antibodies overnight at 4 °C with the indicated primary antibodies: anti-cleaved PARP (BD Biosciences) and anti-β-actin (Santa Cruz Biotechnology, Dallas, TX, USA). […] After 1 h, membranes were detected by using ECL Plus Western blotting detection system (GE Healthcare, Piscataway, NJ, USA).
Figure 4 Effect of 5r on activity of caspase-3 and cleavage of PARP in HepG2 and Huh7 cells. […] (E,F) Cells were cultured with 5r at the indicated concentrations for 24 h, and expression level of PARP, cleaved-PARP and β-actin were measured by Western blot analysis. […]

HepG2 cells [1] = test: In vitro wound-healing assay in HepG2 cells; assay type: cell-based; conditions: Figure 3
Protocol: (§1) The suppressive effect of 5r on cell migration was assessed through in vitro wound-healing assay. HepG2 and Huh7 cells were grown to approximately 100% confluence to form a monolayer in a 96-well microplate. Wounds were formed through 96-well wound maker (Essen BioScience, Ann Arbor, MI, USA). Then, growth medium was removed and washed out twice with phosphate-buffered saline (PBS) and incubated with 200 μL of DMEM and RPMI 1640 medium containing 5r or vehicle (DMSO). Images of the wound area were taken by using IncuCyte ZOOM (Essen BioScience, Ann Arbor MI, USA), and the percentage of wound closure was measured by using IncuCyte software.
(§2) Figure 3 Inhibitory effect of 5r on cell migration in HepG2 and Huh7 cells. (A,B) In vitro wound-healing assay was performed in HepG2 and Huh7 cells (mean ± S.D., n = 3). HepG2 and Huh7 cells were treated with the indicated concentrations of 5r, and time-lapse images were acquired every 2 h after wound infliction. (C,D) Representative images were taken at 0, 48, or 72 h following administration of 5r at the indicated concentrations.

H1299 cells = test: Cell viability assay (MTS) in H1299 cells; assay type: cell-based; conditions: 72 h, MTS, Figure 2D
Protocol: (§3) HepG2, Huh7, H1299, HT29, AGS and A549 cells were purchased from the Korean Cell Line Bank (Seoul, Korea) and HaCaT cells were obtained from Prof. Sohee Kwon (Yonsei University, Korea). Liver cancer cells (HepG2), human keratinocyte cells (HaCaT), and lung cancer cells (A549) were grown in DMEM high-glucose medium, liver cancer cells (Huh7) and non-small cell lung cancer cells (H1299) were grown in RPMI 1640, and gastric cancer cells (AGS) were grown in Coon’s modified F12 medium. All media were supplemented with 10% FBS, 100 Units/mL penicillin, and 100 μg/mL streptomycin. All cells were incubated at 37 °C, 5% CO2 and 95% humidity.
(§4) Cell viability assay was conducted using Cell Titer 96® AQueous One Solution Cell proliferation Assay kit (Promega, Madison, WI, USA). Five cancer cells and HaCaT cells were plated in 96-well microplates with growth medium for 24 h. When cell confluency reached ~30%, cells were treated with DMSO (vehicle) and test compounds. The medium and test compounds were replaced every 24 h. To measure cell viability, the cells were incubated with MTS solution for 1 h. The absorbance was measured by using Infinite M200 microplate reader (Tecan, Männedorf, Switzerland) at 490 nm.
(§5) Figure 2 Effect of 5r on cell viability in HepG2, Huh7, AGS, H1299, A549, HaCaT, NIH3T3, and HEK293T cells. (A–H) HepG2, Huh7, AGS, H1299, A549, HaCaT, NIH3T3, and HEK293T cells were cultured with 5r at the indicated concentrations for 72 h, and medium was replaced every 24 h with freshly added 5r. Cell viability was measured by MTS analysis (mean ± S.D., n = 5). * p < 0.05, ** p < 0.01, *** p < 0.001.

Huh7 cells [2] = test: In vitro wound-healing assay in Huh7 cells; assay type: cell-based; conditions: Figure 3
Protocol: as §1, §2

HepG2 cells [3] = test: Combination of 5r with gemcitabine, cell viability (MTS) in HepG2 cells; assay type: cell-based; conditions: co-treatment with gemcitabine (0.3 μM), 72 h
Protocol: as §4
Figure 6 Combination effect of 5r and gemcitabine on cell viability in HepG2 and Huh7 cells. (A,B) HepG2 and Huh7 cells were cultured with the indicated concentrations of 5r and gemcitabine (0.3 μM) for 72 h, and medium was replaced every 24 h with freshly added 5r and gemcitabine. Cell viability was determined by MTS analysis (mean ± S.D., n = 5). ** p < 0.01, *** p < 0.001.

Huh7 cells [4] = test: Cell viability assay (MTS) in Huh7 cells; assay type: cell-based; conditions: Homo sapiens, Huh-7, mean, n = 5, 72 h for 5r (Figure 2)
Protocol: as §3, §4, §5

HaCaT cells = test: Cell viability assay (MTS) in HaCaT cells; assay type: cell-based, human
Protocol: as §3, §4, §5

HepG2 cells [5] = test: Flow cytometry cell cycle analysis (propidium iodide) in HepG2 cells; assay type: cell-based; conditions: 3 µM 5r for 24 h
Protocol: HepG2 cells were grown to approximately 40% confluence in a 6-well plate and then 5r was treated for 24 h. After 24 h, HepG2 cells were washed out twice with PBS and centrifuged at 1000 RPM for 2 min at room temperature. The cells were stained with propidium iodide for 15 min and then cell cycle phases were measured by using FACS (Beckman Coulter, Fullerton, CA, USA).
Figure 5 Effect of 5r on cell cycle in HepG2 cells. (A,B) HepG2 cells were treated with 3 µM 5r for 24 h and then cell cycle phases were measured by propidium iodide staining, followed by flow cytometry analysis.

SMILES: N#Cc1c2c3cccn3c(-c3ccccc3O)nc2n2ccccc12 [Compound 5r, 5-(2-Hydroxyphenyl)pyrrolo[1′,2′:1,6]pyrimido[5,4-b]indolizine-12-carbonitrile]
- Expression level of cleaved PARP in HepG2 cells (cleaved PARP): increased the expression level of cleaved PARP in a dose-dependent manner
- Effect on cell migration (wound closure) in HepG2 cells (HepG2 cells [1]): significantly inhibited cell migration in a dose-dependent manner
- Effect on cell viability in H1299 cells (H1299 cells): weak effect
- Effect on cell migration (wound closure) in Huh7 cells (Huh7 cells [2]): significantly inhibited cell migration in a dose-dependent manner
- Combination effect with gemcitabine on cell viability in HepG2 cells (HepG2 cells [3]): additional effect rather than a synergistic effect
- IC50 (Huh7 cells [4]): 0.1 µM
- Effect on cell viability in non-cancerous HaCaT cells (HaCaT cells; 72 h, Figure 2F): weakly decreased cell viability
- IC50 (HaCaT cells; Homo sapiens, mean, n = 5): 6.91 µM
- Ratio in the G2/M phase (HepG2 cells [5]): did not affect
- Sub-G1 (apoptotic peak) phase ratio (HepG2 cells [5]; control 24.1%): 56.9%
- G0/G1 phase ratio (HepG2 cells [5]; control 64.6%): 29.3%
